# Values of other authors, collected in paper PMC5931107, “Clinical pharmacodynamic/exposure characterisation of the multikinase inhibitor ilorasertib (ABT-348) in a phase 1 dose-escalation trial” (British Journal of Cancer, 2018).
# System: VEGFR3
# Set-up: method as in PMID 22935731
# Conditions: read-out: Cellular PD marker IC50 (95% confidence limits); cited from earlier work
compound,measurement,value
"Nc1ncc(-c2cnn(CCO)c2)c2scc(-c3ccc(NC(=O)Nc4cccc(F)c4)cc3)c12 [ilorasertib, Ilorasertib]",IC50,2 nM
